According to paper PMC9822021, “Biological Activity of Amidino-Substituted Imidazo [4,5-b]pyridines” (Molecules, 2022):

How the values were obtained:
HSV-1 KOS = assay: Antiviral CPE reduction assay; assay type: cell-based, herpes simplex virus-1; conditions: Human alphaherpesvirus 1
in vitro [1] = conditions: dog
[2] = system: Influenza B (B/Ned/537/05); assay: Antiviral CPE reduction assay; assay type: cell-based; conditions: Influenza B virus, MDCK cells
Zika mr766 = assay: Antiviral CPE reduction assay; assay type: cell-based; conditions: Zika virus, Huh-7, Huh7 cells
E. coli Efflux Del = assay: microbe, parasite or virus in culture; assay type: cell-based; conditions: Escherichia coli, read-out: MIC E. coli Efflux Del
Experimental: (§1) Synthesized compounds were prepared as 10 mM DMSO solutions and tested in a final concentration range of 100–0.2 µM [34].
(§2) Broth microdilution testing was performed according to CLSI (Clinical Laboratory Standards Institute) guidelines. MIC (minimal inhibitory concentration) values were defined as the last tested concentration of the compound at which there was no visible growth of bacteria. Inoculums for each microorganism were prepared using the direct colony suspension method, where broth solutions that achieved turbidity equivalent to 0.5 McFarland standard were additionally diluted 100× with Ca-adjusted MH media (Becton Dickinson).

[3] = system: Influenza H3N2 (A/HK/7/87); assay: Antiviral CPE reduction assay; assay type: cell-based; conditions: Influenza A virus, MDCK cells
Sindbis = assay: Antiviral CPE reduction assay; assay type: cell-based; conditions: Sindbis virus, Huh-7, Huh7 cells
HCoV 229E = assay: Antiviral CPE reduction assay; assay type: cell-based; conditions: Human coronavirus 229E, HEL 299 cells
S. Pneumoniae ATCC 49619 = assay: Antibacterial activity in vitro, broth microdilution; assay type: cell-based; conditions: Streptococcus pneumoniae, ATCC49619; broth microdilution (CLSI), 16–24 h at 37 °C
Experimental: as §1, §2

S. aureus ATCC 29213 = assay: as above; assay type: cell-based; conditions: Staphylococcus aureus, ATCC29213; broth microdilution (CLSI), 16–24 h at 37 °C
Experimental: as §1, §2

E. coli ATCC 25922 = assay: as above; assay type: cell-based; conditions: Escherichia coli, ATCC25922; broth microdilution (CLSI), 16–24 h at 37 °C
Experimental: as §1, §2

HCoV OC43 = assay: Antiviral CPE reduction assay; assay type: cell-based, human coronavirus OC43; conditions: Betacoronavirus 1, OC43, HEL 299 cells
[4] = system: Influenza H1N1 (A/Ned/378/05); assay: Antiviral CPE reduction assay; assay type: cell-based; conditions: Influenza A virus, MDCK cells
in vitro [5] = conditions: human
RSV A Long = assay: Antiviral CPE reduction assay; assay type: cell-based, respiratory syncytial virus A; conditions: human respiratory syncytial virus, HEL 299 cells
HCoV NL63 = assay: Antiviral CPE reduction assay; assay type: cell-based; conditions: Human coronavirus NL63, Huh-7, Huh7 cells
in vitro [6] = conditions: human; remark: listed apart in the source
YFV 17D = assay: microbe, parasite or virus in culture; assay type: cell-based; conditions: Yellow fever virus, Huh-7, read-out: EC50 YFV 17D Huh7
[7] = system: Capan-1 pancreatic adenocarcinoma cells; assay: In vitro antiproliferative activity, MTS proliferation assay; assay type: cell-based; conditions: Homo sapiens, 72 h
Experimental: (§3) Culture media were purchased from Gibco Life Technologies, USA, and supplemented with 10% fetal bovine serum (HyClone, GE Healthcare Life Sciences, Chicago, IL, USA), except for the media for SW620, PC3 and HeLa cells, which were purchased from Sigma.
(§4) Cells were incubated for 72 h with compounds and were then analyzed using the CellTiter 96® AQueous One Solution Cell Proliferation Assay (MTS) reagent (Promega) according to the manufacturer’s instructions. […] Compounds were tested in two independent experiments. SW620, PC3 and HeLa cells were seeded in 96-well microtiter plates at 1 × 10^4 to 3 × 10^4 cells/mL, depending on the doubling times of the specific cell line. Test agents were then added in five 10-fold dilutions (10^−8 to 10^−4 M). Working dilutions were freshly prepared on the day of testing. After 72 h of incubation, the cell growth rate was evaluated using the MTT assay as described previously. […] Each test was performed in quadruplicate in at least two individual experiments.

[8] = system: HL-60 acute myeloid leukemia cells; assay: as above; assay type: cell-based; conditions: Homo sapiens, 72 h
Experimental: as §3, §4

[9] = system: DND-41 acute lymphoblastic leukemia cells; assay: as above; assay type: cell-based; conditions: Homo sapiens, DND41, 72 h
Experimental: as §3, §4

[10] = system: Z-138 non-Hodgkin lymphoma cells; assay: as above; assay type: cell-based, human; conditions: Homo sapiens, Z-138, 72 h
Text: (§5) Human cancer cell lines used in this manuscript, namely Capan-1, HCT-116, NCI-H460, LN-229, HL-60, K-562, Z-138, SW620, PC3 and HeLa, were acquired from the American Type Culture Collection (ATCC, Manassas, VA, USA), while the DND-41 cell line was purchased from the Deutsche Sammlung von Mikroorganismen und Zellkulturen (DSMZ Leibniz-Institut, Germany). Culture media were purchased from Gibco Life Technologies, USA, and supplemented with 10% fetal bovine serum (HyClone, GE Healthcare Life Sciences, Chicago, IL, USA), except for the media for SW620, PC3 and HeLa cells, which were purchased from Sigma.
(§6) Adherent cell lines LN-229, HCT-116, NCI-H460 and Capan-1 cells were seeded at a density between 500 and 1500 cells per well in 384-well tissue culture plates (Greiner). […]. Cells were incubated for 72 h with compounds and were then analyzed using the CellTiter 96® AQueous One Solution Cell Proliferation Assay (MTS) reagent (Promega) according to the manufacturer’s instructions. Absorbance of the samples was measured at 490 nm using a SpectraMax Plus 384 (Molecular Devices), and OD values were used to calculate the 50% inhibitory concentration (IC50). Compounds were tested in two independent experiments. SW620, PC3 and HeLa cells were seeded in 96-well microtiter plates at 1 × 10^4 to 3 × 10^4 cells/mL, depending on the doubling times of the specific cell line. Test agents were then added in five 10-fold dilutions (10^−8 to 10^−4 M). Working dilutions were freshly prepared on the day of testing. After 72 h of incubation, the cell growth rate was evaluated using the MTT assay as described previously. Absorbance of the samples was measured at 570 nm, and OD values were used to calculate the 50% inhibitory concentration (IC50). Each test was performed in quadruplicate in at least two individual experiments.

[11] = system: NCI-H460 lung carcinoma cells; assay: as above; assay type: cell-based; conditions: Homo sapiens, 72 h
Text: as §5, §6

[12] = system: LN-229 glioblastoma cells; assay: as above; assay type: cell-based; conditions: Homo sapiens, 72 h
Text: as §5, §6

[13] = system: K-562 chronic myeloid leukemia cells; assay: as above; assay type: cell-based; conditions: Homo sapiens, K562, 72 h
Text: as §5, §6

[14] = system: HCT-116 colorectal carcinoma cells; assay: as above; assay type: cell-based; conditions: Homo sapiens, 72 h
Text: as §5, §6

[15] = system: HeLa cervical carcinoma cells; assay: In vitro antiproliferative activity, MTT assay; assay type: cell-based; conditions: Homo sapiens, 72 h
Text: as §5, §6

[16] = system: PC3 prostate carcinoma cells; assay: In vitro antiproliferative activity, MTT assay; assay type: cell-based; conditions: Homo sapiens, 72 h
Text: as §5, §6

[17] = system: SW620 colon carcinoma cells; assay: In vitro antiproliferative activity, MTT assay; assay type: cell-based; conditions: Homo sapiens, SW-620, 72 h
Text: as §5, §6

SMILES | CC50 (in vitro [1]) | EC50 [2] | EC50 (Zika mr766) | MIC (E. coli Efflux Del) | EC50 [3] | melting point | EC50 (HCoV 229E) | MIC (S. Pneumoniae ATCC 49619) | MIC (S. aureus ATCC 29213) | MIC (E. coli ATCC 25922) | EC50 (HCoV OC43) | EC50 [4] | CC50 (in vitro [5]) | EC50 (HCoV NL63) | CC50 (in vitro [6]) | EC50 (YFV 17D) | IC50 [7] | IC50 [8] | IC50 [9] | IC50 [10] | further results
O=c1[nH]c(=O)n([C@H]2C[C@H](O)[C@@H](CO)O2)cc1/C=C/Br [BVDU, brivudine, reference compound] | > 100 µM |  |  |  |  |  |  |  |  |  |  |  |  |  |  |  |  |  |  |  | EC50 (HSV-1 KOS): 0.05 µM
Brc1cnc2nc(-c3ccccc3)[nH]c2c1 [Compound 7, 6-Bromo-2-phenyl-1H-imidazo[4,5-b]pyridine] | > 100 µM | > 100000 nM | > 100 µM | > 64 µM | > 100 µM | > 300 °C | > 100 µM | > 64 µM | > 64 µM | > 64 µM | > 100 µM | > 100 µM | > 100 µM | > 100 µM | > 100 µM | > 100 µM |  |  |  |  | EC50 (HSV-1 KOS): > 100 µM; EC50 (Sindbis): > 100 µM; EC50 (RSV A Long; HEL 299, CPE reduction): 21 ± 5.9 µM
Cl.N=C(N)c1ccc(-c2nc3ncc(Br)cc3[nH]2)cc1 [Compound 10, 4-(6-Bromo-1H-imidazo[4,5-b]pyridin-2-yl)benzimidamide Hydrochloride] | > 100 µM | 94000 ± 5200 nM | > 100 µM | > 64 µM | 79.2 ± 14.7 µM | > 300 °C | > 100 µM | > 64 µM | > 64 µM | > 64 µM | > 100 µM | 71.4 ± 24.3 µM | > 100 µM | > 100 µM | > 100 µM | > 100 µM | > 100 µM | > 100 µM | > 100 µM | > 100 µM | EC50 (HSV-1 KOS): > 100 µM; IC50 [11]: > 100 µM; IC50 [12]: > 100 µM; IC50 [13]: > 100 µM; IC50 [14]: > 100 µM; EC50 (Sindbis): > 100 µM; IC50 [15]: 1.3 ± 0.26 µM; IC50 [16]: ≥ 100 µM; IC50 [17]: 0.4 ± 0.1 µM; EC50 (RSV A Long; CPE reduction): 86.9 ± 18.6 µM
Cl.c1cnc2nc(-c3ccc(C4=NCCCN4)cc3)[nH]c2c1 [Compound 12, 2-(4-(1H-Imidazo[4,5-b]pyridin-2-yl)phenyl)-3,4,5,6-tetrahydropyrimidin-1-ium Chloride] | > 100 µM |  |  | > 64 µM |  | > 300 °C |  | > 64 µM | > 64 µM | > 64 µM |  |  | > 100 µM |  | > 100 µM |  | > 100 µM | > 100 µM | > 100 µM | > 100 µM | IC50 [11]: > 100 µM; IC50 [12]: > 100 µM; IC50 [13]: > 100 µM; IC50 [14]: > 100 µM; IC50 [15]: > 100 µM; IC50 [16]: > 100 µM; IC50 [17]: > 100 µM
Cn1c(-c2ccccc2)nc2cc(Br)cnc21 [Compound 18, 6-Bromo-3-methyl-2-phenyl-3H-imidazo[4,5-b]pyridine] | > 100 µM |  |  | > 64 µM |  | 214 to 215 °C |  | > 64 µM | > 64 µM | > 64 µM |  |  | > 100 µM |  | > 100 µM |  | > 100 µM | > 100 µM | > 100 µM | > 100 µM | IC50 [11]: > 100 µM; IC50 [12]: > 100 µM; IC50 [13]: > 100 µM; IC50 [14]: > 100 µM; IC50 [15]: 48 ± 0.2 µM; IC50 [16]: > 100 µM; IC50 [17]: > 100 µM
Cn1c(-c2ccc(C#N)cc2)nc2cc(Br)cnc21 [Compound 19, 4-(6-Bromo-3-methyl-3H-imidazo[4,5-b]pyridin-2-yl)benzonitrile] | > 100 µM |  |  | > 64 µM |  | 234 to 235 °C |  | > 64 µM | > 64 µM | > 64 µM |  |  | > 100 µM |  | > 100 µM |  | > 100 µM | > 100 µM | > 100 µM | > 100 µM | IC50 [11]: > 100 µM; IC50 [12]: > 100 µM; IC50 [13]: > 100 µM; IC50 [14]: > 100 µM; IC50 [15]: 26.1 ± 0.01 µM; IC50 [16]: 28.8 ± 15 µM; IC50 [17]: 63.8 ± 7.4 µM
CCC(CC)COC(=O)[C@H](C)N[P@](=O)(OC[C@H]1O[C@@](C#N)(c2ccc3c(N)ncnn23)[C@H](O)[C@@H]1O)Oc1ccccc1 [Remdesivir, remdesivir, reference compound] |  |  | 0.7 µM |  |  |  | 0.06 µM |  |  |  | 0.06 µM |  | > 10 µM | 0.03 µM | > 10 µM | 6.2 µM |  |  |  |  | EC50 (Sindbis): > 10 µM; EC50 (RSV A Long; CPE reduction): 0.03 ± 0.01 µM
NC(=O)c1ncn([C@@H]2O[C@H](CO)[C@@H](O)[C@H]2O)n1 [Ribavirin, ribavirin, reference compound] | 80.2 ± 18.6 µM | 2800 ± 1800 nM | > 250 µM |  | 4 ± 2.7 µM |  | 82.6 µM |  |  |  | 170 µM | 10.5 ± 3.8 µM |  | > 250 µM |  | > 250 µM |  |  |  |  | EC50 (RSV A Long; HEL 299, CPE reduction): 10.8 ± 2.1 µM
CC(=O)N[C@H]1[C@H]([C@H](O)[C@H](O)CO)OC(C(=O)O)=C[C@@H]1N=C(N)N [Zanamivir, zanamivir, reference compound] | > 100 µM | 50 ± 30 nM |  |  | 16.8 ± 6.8 µM |  |  |  |  |  |  | 0.13 ± 0.04 µM |  |  |  |  |  |  |  |  | 
